Data: publication PMC11302339, “A series of pyrimidine-based antifungals with anti-mold activity disrupt ER function in Aspergillus fumigatus” (Microbiology Spectrum, 2024)
Converted amounts (≈) assume the structure as drawn.

Tests used:
F. oxysporum = test: MIC testing (CLSI broth dilution); assay type: cell-based; conditions: Fusarium oxysporum; strain DUMC Fo, clinical isolate; CLSI conditions, 72 h
Procedure: (§1) MICs were determined using Clinical and Laboratory Standards Institute guidelines ([48], [49]). All yeasts were cultured overnight in 3 mL YPD at 30°C, then washed twice in sterile phosphate-buffered saline (PBS). Twofold serial dilutions of each drug were prepared in RMPI + MOPS, then 1 × 10^3 cells were added per well. For mold species, wells were inoculated with 1.25 × 10^3 conidia per well. Plates were incubated at 37°C for 24 (Candida spp. and S. cerevisiae), 48 (Aspergillus spp., M. circinelloides, S. apiospermum, and L. prolificans), or 72 (C. neoformans and F. oxysporum) hours. S. cerevisiae BY4743 MICs were tested in YPD due to nutritional requirements of this strain. Each assay was performed in technical duplicate in at least two independent experiments performed on different days.

A. fumigatus [1] = test: MIC testing (CLSI broth dilution); assay type: cell-based; conditions: Aspergillus fumigatus
Procedure: as §1

S. apiospermum = test: MIC testing (CLSI broth dilution); assay type: cell-based; conditions: Scedosporium apiospermum; strain MYA3635 (lab reference strain); CLSI conditions
Procedure: as §1

C. neoformans = test: MIC testing (CLSI broth dilution); assay type: cell-based; conditions: Cryptococcus neoformans
Procedure: as §1

L. prolificans = test: MIC testing (CLSI broth dilution); assay type: cell-based; conditions: Lomentospora prolificans; strain 90853; CLSI conditions
Procedure: as §1

M. circinelloides = test: MIC testing (CLSI broth dilution); assay type: cell-based; conditions: Mucor circinelloides; strain CBS277.49; CLSI conditions
Procedure: as §1

C. glabrata = test: MIC testing (CLSI broth dilution); assay type: cell-based; conditions: Nakaseomyces glabratus; strain KK2001; CLSI conditions
Procedure: as §1

sheep red blood cells = test: Hemolysis assay; assay type: cell-based; conditions: 2 hours at RT
Procedure: Hemolysis assays were performed with defibrinated sheep’s blood (Lampire, Cat # 7239001). Blood was washed three times with PBS then resuspended to ~50% hematocrit in PBS. Drugs were diluted to generate a twofold dilution series in 200 µL PBS with equal DMSO concentration across the series, then red blood cells were added for a final concentration of 2% hematocrit. Cells were incubated at RT for 2 hours in a v-bottom microtiter plate; then, plates were spun down; and the supernatant was transferred to a flat-bottomed microtiter plate for absorbance measurement at 570 nm. Drugs were tested in technical triplicate in at least two independent assays performed on different lots of blood.

A. fumigatus [2] = test: MIC testing in the presence of 10% serum; assay type: cell-based, Aspergillus fumigatus
Procedure: as §1

A. fumigatus ∆ireA = test: Susceptibility of ∆ireA mutant on GMM plates; assay type: cell-based, Aspergillus fumigatus; conditions: 72 hours at 30°C, colony diameter ratio
Procedure: For Aspergillus fumigatus, 5 µL of 1 × 10^4 CEA10 conidia was spotted at the center of GMM plates containing DMSO or 1 µg/mL 1 in combination with DTT, brefeldin A, or tunicamycin. Plates were incubated at 37°C for 72 hours. Representative images of two independent experiments with three biological replicates each were obtained. For Ire1 strains, the cells were prepared as described above but were incubated at 30°C.

C. neoformans H99 = test: ER stress interactions on YPD plates; assay type: cell-based, Cryptococcus neoformans; conditions: 4 µg/mL 1 on YPD
Procedure: To determine interactions of 1 with ER stress in Cryptococcus neoformans, an overnight culture of H99 was diluted to 1 × 10^6 CFU/mL, then three 10-fold dilutions were prepared. Three-microliter spots of each cell dilution were plated in triplicate on YPD containing DMSO or 4 µg/mL 1 in combination with DTT, brefeldin A, or tunicamycin. Plates were incubated at 37°C for 72 hours. Images are representative of two independent experiments performed in biological triplicate.

Hog1 = test: Western blotting for total and phosphorylated Hog1; assay type: cell-based, Cryptococcus neoformans
Procedure: C. neoformans H99 overnight cultures were diluted to OD = 0.1 in YPD and incubated at 30°C for 3 hours with shaking. Cultures were split into four subcultures and treated with DMSO or 1 µg/mL 1 (two each) for 2 hours at 30°C, then water or 1 M NaCl was added to one culture of each treatment and incubated for an additional 30 min at 30°C. Cell pellets were snap frozen and stored at −80°C. Protein was extracted in extraction buffer (10 mM HEPES, pH 7.4–7.9, 1.5 mM MgCl2, 10 mM KCl, 1 mM DTT, 1× HALT protease and phosphatase inhibitor cocktail) by bead beading for 30 s on 60 s off with incubation on ice five times. The supernatant was removed from glass beads, and protein concentration was quantified by Bradford protein assay. Twenty micrograms of protein was loaded on a 10% SDS-PAGE gel and run at 80 V. Samples were transferred to nitrocellulose membrane for 1 hour at 100 V, then the membrane was stained with Ponceau for 15 min at RT. Membranes were blocked with 5% bovine serum albumin (BSA) in Tris-buffered saline with Tween 20 (TBST) for 1 hour at room temperature, then incubated with 1:10,000 rabbit anti-p-p38 (Phospho-p38 MAPK, # 9211; Cell Signaling) in 5% BSA/TBST or 1:5,000 custom Hog1 antibody # R02361 (GenScript) overnight at 4°C. […]

**Q.** For `OC1CC(c2cc(N3CCC(CCc4ccccc4)CC3)ncn2)C1` (centres unmarked) [compound 1], which MIC (F. oxysporum) is on record?
**A.** > 64 mg/L

**Q.** And the MIC (A. fumigatus [1]; 48 h, strain CEA10, CLSI conditions, 48 h, read-out: MIC)?
**A.** 16 mg/L (≈ 47.4 µM)

**Q.** And the MIC (A. fumigatus [1]; ATCC13073, strain ATCC13073, CLSI conditions, read-out: MIC)?
**A.** 8 mg/L (≈ 23.7 µM)

**Q.** What about the MIC (A. fumigatus [1]; strain AF293, CLSI conditions, read-out: MIC) of the same compound?
**A.** 16 mg/L (≈ 47.4 µM)

**Q.** What about the MIC (A. fumigatus [1]; strain S001, clinical isolate, CLSI conditions, read-out: MIC) of the same compound?
**A.** 8 mg/L (≈ 23.7 µM)

**Q.** What about the MIC (A. fumigatus [1]; strain S003, clinical isolate, CLSI conditions, read-out: MIC) of the same compound?
**A.** 4 mg/L (≈ 11.9 µM)

**Q.** What about the MIC (A. fumigatus [1]; strain SPF93 (voriconazole-susceptible parent), CLSI conditions, read-out: MIC) of the same compound?
**A.** 8 mg/L (≈ 23.7 µM)

**Q.** And the MIC (A. fumigatus [1]; strain SPF98, drug-resistant isolate (cyp51A TR34 L98H), CLSI conditions)?
**A.** 8 mg/L (≈ 23.7 µM)

**Q.** What about the MIC (A. fumigatus [1]; A. fumigatus reference strains and clinical isolates, read-out: MIC) of the same compound?
**A.** 8 to 16 mg/L (≈ 23.7 to 47.4 µM)

**Q.** What about the MIC (S. apiospermum) of the same compound?
**A.** 2 mg/L (≈ 5.93 µM)

**Q.** And the MIC (C. neoformans; 72 h, strain H99, CLSI conditions)?
**A.** 1 mg/L (≈ 2.96 µM)

**Q.** And the MIC (C. neoformans; strain DUMC118, clinical isolate, CLSI conditions)?
**A.** 2 mg/L (≈ 5.93 µM)

**Q.** And the MIC (C. neoformans; strain DUMC138, clinical isolate, CLSI conditions)?
**A.** 1 mg/L (≈ 2.96 µM)

**Q.** And the MIC (C. neoformans; strain JEC21, CLSI conditions)?
**A.** 2 mg/L (≈ 5.93 µM)

**Q.** And the MIC (C. neoformans; strain not named)?
**A.** 2 mg/L (≈ 5.93 µM)

**Q.** What about the MIC (L. prolificans) of the same compound?
**A.** 8 mg/L (≈ 23.7 µM)

**Q.** And the MIC (M. circinelloides)?
**A.** 16 mg/L (≈ 47.4 µM)

**Q.** And the MIC (C. glabrata)?
**A.** 64 mg/L (≈ 190 µM)

**Q.** What about the “LD50 (hemolysis)” value (sheep red blood cells; 2% hematocrit) of the same compound?
**A.** 350 µg/mL

**Q.** What about the “hemolysis of red blood cells” value (sheep red blood cells; up to 128 µg/mL) of the same compound?
**A.** did not observe hemolysis

**Q.** What about the “increase in MIC in the presence of 10% serum” value (A. fumigatus [2]; A. fumigatus) of the same compound?
**A.** 2 fold

**Q.** And the MIC (A. fumigatus [2]; Aspergillus fumigatus, read-out: MIC w/serum)?
**A.** 32 mg/L

**Q.** What about the “susceptibility of ∆ireA mutant vs wild type” value (A. fumigatus ∆ireA) of the same compound?
**A.** same susceptibility as wild type

**Q.** And the interaction with tunicamycin (C. neoformans H99; 0.125 µg/mL tunicamycin)?
**A.** antagonistic

**Q.** What about the interaction with tunicamycin (C. neoformans H99; 0.25 µg/mL tunicamycin) of the same compound?
**A.** additive

**Q.** What about the “interaction with DTT” value (C. neoformans H99; 37°C, 72 hours) of the same compound?
**A.** synergistic

**Q.** What about the “interaction with brefeldin A” value (C. neoformans H99; 37°C, 72 hours) of the same compound?
**A.** synergistic

**Q.** What about the Hog1 phosphorylation (Hog1; 1 µg/mL 1 alone for 2 hours at 30°C) of the same compound?
**A.** activation of Hog1 via phosphorylation

**Q.** And the “Hog1 phosphorylation, combination with salt” value (Hog1; 1 µg/mL 1 for 2 hours, then 1 M NaCl 30 min)?
**A.** additive
